Measurements as given in ChEMBL document CHEMBL5584290, “Novel flexible biphenyl PfDHFR inhibitors with improved antimalarial activity” (RSC Med Chem, 2024).

Legend:
[1] = Cytotoxicity against African green monkey Vero cells assessed as reduction in cell viability incubated for 72 hrs by sulforhodamine B assay
Dihydrofolate reductase = molecular target: T1, Dihydrofolate reductase (Homo sapiens, UniProt P00374); assay: Inhibition of human DHFR expressed in Escherichia coli BL21(DE3) pLysS cells assessed as inhibition constant using DHF as substrate measured for 80 sec in presence of NADPH
T1 sequence (P00374 whole entry): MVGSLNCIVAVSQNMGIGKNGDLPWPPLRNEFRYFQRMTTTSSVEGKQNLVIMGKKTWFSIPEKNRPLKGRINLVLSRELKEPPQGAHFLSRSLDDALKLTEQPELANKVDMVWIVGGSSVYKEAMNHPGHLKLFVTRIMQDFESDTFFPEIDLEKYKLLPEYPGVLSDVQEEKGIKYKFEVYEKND

[2] = Inhibition of wild type Plasmodium falciparum DHFR N51I/C59R/S108N/I164L quadruple mutant expressed in Escherichia coli BL21(DE3) pLysS cells assessed as inhibition constant using DHF as substrate measured for 80 sec in presence of NADPH
[3] = Selectivity index, ratio of IC50 for cytotoxicity against African green monkey Vero cells to IC50 for antimalarial activity against PYR-resistant Plasmodium falciparum V1/S expressing DHFR N51I/C59R/S108N/I164L quadruple mutant
Plasmodium falciparum [4] = assay: Antimalarial activity against PYR-sensitive Plasmodium falciparum TM4/8.2 expressing wild type DHFR incubated for 24 hrs by [3H]-hypoxanthine incorporation assay
Plasmodium falciparum [5] = assay: Antimalarial activity against PYR-resistant Plasmodium falciparum V1/S expressing DHFR N51I/C59R/S108N/I164L quadruple mutant infected in human erythrocytes incubated for 24 hrs by [3H]-hypoxanthine incorporation assay
[6] = molecular target: Bifunctional dihydrofolate reductase-thymidylate synthase (Plasmodium falciparum K1, UniProt P13922); assay: Inhibition of wild type Plasmodium falciparum DHFR expressed in Escherichia coli BL21(DE3) pLysS cells assessed as inhibition constant using DHF as substrate measured for 80 sec in presence of NADPH
physchem = conditions: octanol/phosphate buffer, pH 7.4
Description: Lipophilicity, log D of the compound in octanol/phosphate buffer at pH 7.4 at 100 uM incubated for 2 hrs by HPLC analysis

Plasmodium falciparum [7] = assay: Antimalarial activity against PYR-resistant Plasmodium falciparum V1/S expressing DHFR N51I/C59R/S108N/I164L quadruple mutant by [3H]-hypoxanthine incorporation assay
Plasmodium falciparum [8] = assay: Antimalarial activity against PYR-sensitive Plasmodium falciparum TM4/8.2 expressing wild type DHFR by [3H]-hypoxanthine incorporation assay; conditions: TM4/8.2, 3 h
[9] = Cytotoxicity against African green monkey Vero cells assessed as reduction in cell viability
in vitro [10] = conditions: human, liver microsomes
Description: Intrinsic clearance in human liver microsomes incubated up to 60 mins in presence of NADPH by LC-MS/MS analysis

in vitro [11] = conditions: rat, liver microsomes
Description: Intrinsic clearance in rat liver microsomes incubated up to 60 mins in presence of NADPH by LC-MS/MS analysis

[12] = Inhibition of Plasmodium falciparum DHFR N51I/C59R/S108N/I164L quadruple mutant

Sequence of Bifunctional dihydrofolate reductase-thymidylate synthase (P13922 whole entry): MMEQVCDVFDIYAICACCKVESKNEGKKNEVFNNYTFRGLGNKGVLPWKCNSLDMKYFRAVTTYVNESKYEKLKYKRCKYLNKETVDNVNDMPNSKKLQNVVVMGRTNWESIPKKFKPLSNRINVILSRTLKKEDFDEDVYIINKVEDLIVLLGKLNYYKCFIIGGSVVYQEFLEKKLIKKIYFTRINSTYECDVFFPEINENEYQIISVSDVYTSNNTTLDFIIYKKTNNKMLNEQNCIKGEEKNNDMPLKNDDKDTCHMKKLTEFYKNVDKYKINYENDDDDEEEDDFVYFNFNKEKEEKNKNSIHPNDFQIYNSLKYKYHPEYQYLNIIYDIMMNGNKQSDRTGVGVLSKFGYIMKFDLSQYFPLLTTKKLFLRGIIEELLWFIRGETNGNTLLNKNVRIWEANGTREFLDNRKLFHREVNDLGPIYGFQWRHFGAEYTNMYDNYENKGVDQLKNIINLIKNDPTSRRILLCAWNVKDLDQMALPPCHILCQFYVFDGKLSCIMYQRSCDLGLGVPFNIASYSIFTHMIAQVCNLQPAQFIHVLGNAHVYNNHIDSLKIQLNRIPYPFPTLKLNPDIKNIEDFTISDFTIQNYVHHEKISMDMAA

Row | SMILES | IC50 at 72 h [1] [nM] | Ki (Dihydrofolate reductase) [nM] | Ki [2] [nM] | selectivity ratio [3] | IC50 (Plasmodium falciparum [4]) [nM] | IC50 (Plasmodium falciparum [5]) [nM] | Ki [6] [nM] | logD at 2 h, 100 µM (physchem) | IC50 (Plasmodium falciparum [7]) [nM] | IC50 (Plasmodium falciparum [8]) [nM] | IC50 [9] [nM] | microsomal CLint at 1 h (in vitro [10]) [µL/min/mg] | microsomal CLint at 1 h (in vitro [11]) [µL/min/mg] | Ki [12] [nM]
1 | CCOC(=O)c1ccc(-c2ccc(OCCCCOc3c(N)nc(N)nc3CC)cc2)cc1 | > 50000 | > 250000 | 0.99 | > 2.2 | 225 | 22800 | 0.67 | > 2.5 |  |  |  |  |  | 
2 | CCc1nc(N)nc(N)c1OCCCOc1ccccc1CCC(=O)O |  |  |  |  |  |  |  |  | 56 | 5 | > 100000 | < 3 | < 3 | 0.54
